Where “and” joins values, the source holds several entries; their conditions need not be identical. Equal entries are not always repeated.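 Step 1: Grow cells in 96-well plates. Step 2: Expose to compound for 48 hours at 5 concentrations. Step 3: Interpolate endpoints linearly; if unreached, use highest concentration. Here, GI50 denotes the concentration required for 50% inhibition of growth. At the TGI there is no net growth.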 *1 amine or outer side, *2 acyl side, *3 side chain or, on linkers, in order; H or OH if unused. Where a SMILES comes first, the peptide text is derived from it. Bridges are numbered along the chain shown (N, C = ends). [ ]: non-standard residue; d: D form. The star is where a group is joined. X19 = O=C([C@H](N[*:1])c1ccc(O[C@H]2O[C@@H](CO)[C@@H](O)[C@@H](O)[C@H]2O[C@@H]2O[C@H](CO)[C@H](O)[C@H](O)[C@@H]2O)cc1)[*:2]; X18 = NC(=O)[C@@H](O[*:3])[C@H](N[*:1])C(=O)[*:2]; X20 = O=C([C@H](N[*:1])c1ccc(O)c(Cl)c1)[*:2]; d(aThr) = C[C@@H](O)[C@@H](N)C(=O)O; dHpg = N[C@@H](C(=O)O)c1ccc(O)cc1; X17 = CC(C)C/C=C/C=C/C(=O)*; dOrn = NCCC[C@@H](N)C(=O)O
Tested on: MDA-MB-468 breast
Test: inhibition of tumour cell growth, NCI panel, 48 h

Row | Compound | GI50 | TGI
1 | Cc1cc(C(NC(=O)CCCCCNc2cccc3c2C(=O)N(C2CCC(=O)NC2=O)C3=O)c2cccnc2)c(O)c2ncccc12 (centres undefined) | < 0.01 µM | 0.0328 µM
2 | O=C1c2cccc3cc([N+](=O)[O-])cc(c23)C(=O)N1CCN1CCCC1 | 0.605 µM | 2.44 µM
3 | O=C(Nc1ccc(Cl)cc1)c1cc2cc(F)ccc2cc1O | 2.47 µM | 6.17 µM
4 | COc1cccc(-c2nc(-c3ccc(NC(=O)c4ccccc4)cc3)[nH]c2-c2ccnc(Br)c2)c1 | 2.87 µM | > 100 µM
5 | Cc1cccc2c1NC(=O)[C@@]21[C@H](C(=O)c2ccccc2)[C@]2(C(=O)Nc3ccccc32)[C@H]2CCCN21 | 22.3 µM | > 100 µM
6 | CCC1CCCCN1C(=S)N/N=C(\C)c1ccccn1 (centres undefined) | < 0.0153 µM | 0.503 µM
7 | NC(=O)c1cc(Cl)ccc1NC(=O)c1ccccc1-c1ccccc1 | 0.448 µM | 48.7 µM
8 | COC(=O)c1cc2c3c(cc(O)c2[nH]1)N(C(=O)C1Cc2cc(OC)c(OC)c(OC)c2N1)CC3CCl (centres undefined) | < 0.01 µM | < 0.01 µM
9 | CCn1cc(C(=O)N/N=C/c2cccc(F)c2)c(=O)c2cc(F)c(N3CCNC(C)C3)c(F)c21 (centres undefined) | 1.64 µM | 3.18 µM
10 | COc1cc2c(Nc3ccc(Br)cc3F)ncnc2cc1OCC1CCN(C)CC1 | 0.455 µM and 0.452 µM | 2.57 µM and 3.53 µM
11 | Cc1nn(-c2ccccc2)c2ncnc(N/N=C/c3ccccc3O)c12 | 1.56 µM | 8.59 µM
12 | COc1ccc(-c2csc(NC(=O)N3CCN(c4cc5c(cc4F)c(=O)c(C(=O)O)cn5C4CC4)CC3)n2)cc1 | 1.14 µM | 8.13 µM
13 | CCC(c1ccc(OC)cc1)C(CC)c1ccc(O)c(CN2CCCC2)c1 (centres undefined) | 1.62 µM | 3.69 µM
14 | C[C@@H](Oc1cc(NS(=O)(=O)N2CCC2)nc(SCc2cccc(F)c2F)n1)[C@@H](O)CO | > 100 µM | > 100 µM
15 | COc1ccc([C@@H]2[C@@H](O)C(=O)N2c2cc(OC)c(OC)c(OC)c2)cc1 | 0.0243 µM | 0.0677 µM
16 | O=c1ccccc(-c2ccc(-c3ccco3)cc2)c1O | 0.32 µM | 3.3 µM
17 | COc1cc(/C=C2\CN(S(=O)(=O)c3ccc(C)cc3)C/C(=C\c3cc(CN4CCCCC4)c(O)c(OC)c3)C2=O)cc(CN2CCCCC2)c1O | 1.94 µM | 3.99 µM
18 | C#Cc1cccc(Nc2ncnc3ccc(-c4cnc(Cl)c(NS(C)(=O)=O)c4)cc23)c1 | 0.178 µM | 0.88 µM
19 | O=S(=O)(NCCCNc1cc(-c2cn(-c3ccccc3)nc2-c2cccc(O)c2)ccn1)c1cccc2ccccc12 | 1.85 µM | 6.01 µM
20 | O=C1CCC2=C3C4CCCCC4C(=O)C4CCCC(OC2C1)C34 (centres undefined) | 1.87 µM | 5.2 µM
21 | CN(C)CCCN=c1cc2c(=O)n(CCCN(C)C)c(=O)c3c(NCCCN(C)C)cc4c(O)n(CCCN(C)C)c(=O)c1c4c3-2 | 1.3 µM | 3.58 µM

Row | Compound | GI50 | TGI
22 | COc1ccc(Cl)cc1NC(=O)c1c(NC(=O)C(F)(F)C(F)(F)F)sc2c1CCCCC2 | 0.765 µM | 4.68 µM
23 | O=C1/C(=C/c2ccccc2)CN(CCC(=O)N2C/C(=C\c3ccccc3)C(=O)/C(=C/c3ccccc3)C2)C/C1=C\c1ccccc1 | 9.33 µM | 42.8 µM
24 | CC1OC(O[C@H]2/C=C/C=C/C=C/C=C/C=C/C=C/C=C/[C@H](C)[C@@H](O)[C@@H](C)[C@H](C)OC(=O)C[C@H](O)C[C@H](O)CC[C@@H](O)[C@H](O)C[C@H](O)C[C@]3(O)C[C@H](O)[C@@H](C(=O)O)[C@H](C2)O3)C(O)C(N)C1O (some centres undefined) | 53.3 µM | > 100 µM
25 | Cc1ccc2c(N/N=C\c3ccco3)cc(C)nc2n1 | 2.68 µM | 7.47 µM
26 | COc1cc([C@@H]2c3cc4c(cc3[C@H](OC(C)=O)[C@H]3COC(=O)[C@H]23)OCO4)cc(OC)c1OC | 0.0295 µM | > 100 µM
27 | O=C(O[C@H]1CN[C@H](C#Cc2cc3ncnc(Nc4ccc(OCc5cccc(F)c5)c(Cl)c4)c3s2)C1)N1CCOCC1 | 0.391 µM | 4.78 µM
28 | CCCCNC(=O)Oc1ccc2c(=O)c3sc4c(=O)c5ccccc5c(=O)c4c3c(=O)c2c1 | 1.45 µM | 3.39 µM
29 | CNC(=O)c1cncc(/C=C/c2c(C)cccc2C)c1 | > 22.7 µM | > 25 µM
30 | N/C(=N\c1nc2ccccc2s1)NC(=O)Nc1ccccc1Cl | 0.317 µM | 5.92 µM
31 | COc1ccccc1N1CCN(C(=O)c2ccc(NS(=O)(=O)c3cccc4cccnc34)cc2)CC1 | > 28.9 µM | > 100 µM
32 | COc1cc(C)[nH]c(=O)c1CN1CCc2c(Cl)cc([C@H](OC)C3COC3)c(Cl)c2C1=O | > 100 µM | > 100 µM
33 | CC(C)C/C=C/C=C/C(=O)N[C@@H](CC(N)=O)C(=O)N[C@@H]1C(=O)N[C@H](c2ccc(O)cc2)C(=O)N[C@H](CCCN)C(=O)N[C@H]([C@@H](C)O)C(=O)N[C@H](c2ccc(O)cc2)C(=O)N[C@H](c2ccc(O)cc2)C(=O)N[C@H]([C@H](C)O)C(=O)N[C@H](Cc2ccccc2)C(=O)N[C@H](CCCN)C(=O)N[C@H](c2ccc(O[C@H]3O[C@@H](CO)[C@@H](O)[C@@H](O)[C@H]3O[C@@H]3O[C@H](CO)[C@H](O)[C@H](O)[C@@H]3O)cc2)C(=O)N[C@H]([C@H](C)O)C(=O)N[C@H](c2ccc(O)cc2)C(=O)NCC(=O)N[C@H](CC(C)C)C(=O)N[C@H](C)C(=O)N[C@H](c2ccc(O)c(Cl)c2)C(=O)O[C@@H]1C(N)=O (X17-N[X18][dHpg][dOrn][d(aThr)][dHpg][dHpg][dT][dF][dOrn][X19][dT][dHpg]G[dL][dA][X20]; ester 2-C) | 19.7 µM | 56.7 µM
34 | O=C(NC1CCN(Cc2ccccc2)CC1)c1cc(C(=O)NC2CCN(Cc3ccccc3)CC2)cc(C(=O)NC2CCN(Cc3ccccc3)CC2)c1 | 0.866 µM | 1.89 µM
35 | Oc1ccc2ccccc2c1N=Nc1ccccn1 | 1.41 µM | 4.89 µM
36 | O=C1/C(=C/c2ccccc2Br)COc2ccc(O)c(O)c21 | 1.65 µM | 3.94 µM
37 | O=C1/C=C/[C@@H](O)[C@@H]2C[C@@H](O)C[C@H]2/C=C/CCC[C@H](CO)O1 | 0.419 µM | 2.77 µM
38 | COc1c(B(O)O)cccc1-c1nc2c(F)cc3[nH]ncc3c2c2c1CCCC2 | 1.06 µM | 3.69 µM
39 | N#C/C(=C/C=C/c1ccccc1)S(=O)c1ccccc1 (centres undefined) | 0.274 µM | 0.987 µM
40 | CC(C)(C)N1CC(OC(N)=O)C1 | > 100 µM | > 100 µM
41 | C=C1SC(=Nc2ccccc2Cl)N(C(=O)c2sc3ccccc3c2Cl)C1(C)C | 12.6 µM | > 100 µM
42 | Cc1cccc2c1O/C(=C\c1ncc([N+](=O)[O-])n1C)C2=O | 1.41 µM | 4.01 µM

Reference: PubChem BioAssay (NCI)
